Test results from ChEMBL document CHEMBL1201862, “PubChem BioAssay data set” (2004).
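Tested at 5 concentrations; 48 h exposure; 96-well plates; endpoints linearly interpolated, else capped at highest concentration. At the GI50, growth is halved.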 Calls of active or inactive are those of the source. Rule as the data show it: active = GI50 up to about 1.1 µM and inactive = higher.

Tests used:
Assay in all cases: NCI anticancer screen, dose series, 48 h
[1] = system: SK-MEL-2
[2] = system: U-251
[3] = system: OVCAR-8
[4] = system: KM12
[5] = system: SK-MEL-28
[6] = system: SN12C
[7] = system: SF-268
[8] = system: A549
[9] = system: K562
[10] = system: PC-3
[11] = system: 786-0
[12] = system: SNB-19
[13] = system: OVCAR-3
[14] = system: OVCAR-4
[15] = system: T47D
[16] = system: IGROV-1
[17] = system: COLO 205
[18] = system: HT-29
[19] = system: CAKI-1
[20] = system: LOX IMVI

Measured: GI50

COC(=O)C(Cc1c[nH]c2ccccc12)NC1=Nc2ccncc2S(=O)(=O)N1c1ccccc1 (centres undefined)
inactive: [1] 38.1 µM | [2] 41.5 µM | [3] 34 µM | [4] 31.3 µM | [5] 28.4 µM | [6] 78.3 µM | [7] 38.9 µM | [8] 59 µM | [9] 20.5 µM | [10] 29.1 µM | [11] 33.3 µM | [12] > 100 µM | [13] 34.2 µM | [14] 24.7 µM | [15] 20.5 µM | [16] 31 µM | [17] 17.6 µM | [18] 18.9 µM | [19] 39.4 µM | [20] 28.2 µM

CO/C=C(/C(=O)OC)c1ccccc1Oc1c(F)c(F)c(F)c(F)c1F
inactive: [1] 24.2 µM | [2] 44.7 µM | [3] 80.5 µM | [4] 24 µM | [5] 55.7 µM | [6] 42.9 µM | [7] 50.1 µM | [8] 34.8 µM | [9] 38.7 µM | [10] 34.8 µM | [11] 33.7 µM | [12] 57.4 µM | [13] 21.3 µM | [14] 24.4 µM | [15] 21.2 µM | [16] 29.3 µM | [17] 17.6 µM | [18] 32.4 µM | [19] 12.8 µM | [20] 32.4 µM

O=C(N/N=C\c1ccc2ccccc2c1)Nc1ccc([N+](=O)[O-])cc1
inactive: [1] 24 µM | [2] 29.3 µM | [3] 23 µM | [4] 33.4 µM | [5] 26.2 µM | [6] 24.2 µM | [7] 27 µM | [8] 26.4 µM | [9] 9.84 µM | [10] 17.2 µM | [11] 24 µM | [12] 24.3 µM | [13] 20.2 µM | [14] 22.1 µM | [15] 17.9 µM | [16] 29.7 µM | [17] 21.6 µM | [18] 21.3 µM | [19] 45 µM | [20] 30.5 µM

CO/N=C(\C(=O)O/C(=N/C1CCCCC1)NC1CCCCC1)c1csc(NC(c2ccccc2)(c2ccccc2)c2ccccc2)n1
inactive: [1] > 10 µM | [2] > 10 µM | [3] > 10 µM | [4] > 10 µM | [5] > 10 µM | [6] > 10 µM | [7] > 10 µM | [8] > 10 µM | [9] > 10 µM | [10] > 10 µM | [11] > 10 µM | [12] > 10 µM | [13] > 10 µM | [14] > 10 µM | [15] > 10 µM | [16] > 10 µM | [17] > 10 µM | [18] > 10 µM | [19] > 10 µM | [20] 9.46 µM

CC1(C)[C@@H](Cn2cnc3c(O)nc(N)nc32)CC[C@@]1(C)CO
inactive: [1] > 100 µM | [2] > 100 µM | [4] > 100 µM | [5] > 100 µM | [6] > 100 µM | [7] > 100 µM | [8] > 100 µM | [9] > 100 µM | [10] > 100 µM | [11] > 100 µM | [12] > 100 µM | [13] > 100 µM | [14] > 100 µM | [15] > 100 µM | [19] > 100 µM | [20] > 100 µM

Nc1nc(O)c2ncn([C@H]3CC[C@@H](CO)O3)c2n1
inactive: [1] > 100 µM | [2] > 100 µM | [3] > 100 µM | [4] > 100 µM | [5] > 100 µM | [6] > 100 µM | [9] > 100 µM | [10] > 100 µM | [12] > 100 µM | [13] > 100 µM | [14] > 100 µM | [15] > 100 µM | [16] > 100 µM | [17] > 100 µM | [18] > 100 µM | [19] > 100 µM | [20] > 100 µM

Cn1ccc(C(=O)NCCOCCNC(=O)c2ccn(C)c(=O)c2O)c(O)c1=O
inactive: [1] > 100 µM | [2] > 100 µM | [3] > 100 µM | [4] 18.2 µM | [5] > 100 µM | [6] > 100 µM | [7] > 100 µM | [8] > 100 µM | [10] > 100 µM | [11] > 100 µM | [12] > 100 µM | [14] > 100 µM | [15] > 100 µM | [17] > 100 µM | [18] > 100 µM | [19] > 100 µM | [20] > 100 µM

COC(=O)C(C(=O)C(=O)Nc1c(C)cccc1C(C)(C)C)c1nc2ccc(Cl)cc2nc1O (centres undefined)
inactive: [1] > 100 µM | [2] > 100 µM | [3] > 100 µM | [4] > 100 µM | [5] > 100 µM | [6] > 100 µM | [7] > 100 µM | [8] > 100 µM | [9] > 100 µM | [10] > 100 µM | [11] > 100 µM | [12] 86.5 µM | [13] > 100 µM | [14] > 100 µM | [15] > 100 µM | [16] 25.8 µM | [18] > 100 µM | [19] > 100 µM | [20] > 100 µM

CC(C)(C)OC(=O)C1=C(C(=O)OC(C)(C)C)SC2(S1)C(C(=O)OC(C)(C)C)=C(C(=O)OC(C)(C)C)Sc1c2ssc1=O
inactive: [1] 72.9 µM | [2] 49.1 µM | [3] 49.9 µM | [4] > 100 µM | [5] 73.1 µM | [6] 38.3 µM | [7] 60.1 µM | [8] 72.3 µM | [9] 41.3 µM | [10] 41 µM | [12] > 100 µM | [13] 48.2 µM | [14] 24.6 µM | [15] 61 µM | [16] 59.4 µM | [17] 62.7 µM | [18] 86.5 µM | [19] 83.8 µM | [20] 34.7 µM

CN1CCN(CCCN2c3ccccc3Sc3ccc(C(F)(F)F)cc32)CC1
inactive: [1] 4.18 µM | [2] 4.95 µM | [3] 13.1 µM | [4] 2.94 µM | [5] 1.66 µM | [6] 7.57 µM | [7] 7.78 µM | [8] 10.2 µM | [10] 4.58 µM | [11] 4.14 µM | [12] 11.4 µM | [14] 8.81 µM | [15] 6.1 µM | [18] 2.35 µM | [19] 9.64 µM | [20] 2.73 µM

CCCNC(=O)c1cc(NC(=O)c2cc(NC(=O)CCS(=O)(=O)OC)cn2C)cn1C
inactive: [1] 18.3 µM | [2] 6.62 µM | [3] 15.2 µM | [4] 21.9 µM | [5] 33.3 µM | [6] 13.8 µM | [8] > 91 µM | [9] 5.2 µM | [10] 10.2 µM | [11] 23.7 µM | [12] 2.21 µM | [13] 10.4 µM | [14] 26.5 µM | [15] 5.11 µM | [16] 15 µM | [17] 6.64 µM | [18] 22 µM | [19] > 52 µM | [20] 14.6 µM

CCCn1c(=O)c2ccccc2[n+]2c(-c3ccc([N+](=O)[O-])cc3)csc12
inactive: [1] 35.7 µM | [2] 34.4 µM | [3] 13.6 µM | [4] 18.8 µM | [6] 41.3 µM | [7] 41.8 µM | [8] 47 µM | [9] 20.9 µM | [10] 18.1 µM | [11] 26.2 µM | [12] 25.7 µM | [14] 17.9 µM | [15] 30.6 µM | [16] 20.3 µM | [17] 39.9 µM | [18] 25 µM | [19] 40.9 µM | [20] 22.1 µM

Cc1nnc(N)nc1C/C=C/C(Sc1ccc(Cl)cc1)c1ccccc1 (centres undefined)
inactive: [1] 5.66 µM | [2] 2.91 µM | [3] 5.04 µM | [4] 3.56 µM | [5] 6.78 µM | [6] 4.41 µM | [7] 2.4 µM | [8] 2.82 µM | [9] 3.44 µM | [10] 3.01 µM | [11] 3.27 µM | [12] 3.05 µM | [14] 4.94 µM | [15] 11.2 µM | [16] 1.82 µM | [17] 4.5 µM | [18] 7.01 µM | [19] 5.7 µM | [20] 2.26 µM

CC1=C(C(=O)NCCc2ccccc2)CC(C(=O)NCCc2ccccc2)=C(C)N1
inactive: [1] > 100 µM | [2] > 100 µM | [3] > 100 µM | [4] 38.3 µM | [6] > 100 µM | [7] 61 µM | [8] > 100 µM | [9] 44.3 µM | [10] 37.2 µM | [11] 87.5 µM | [12] 6.1 µM | [13] 88.3 µM | [14] > 100 µM | [15] 64.6 µM | [16] 54.8 µM | [17] > 100 µM | [18] 61.1 µM | [19] > 100 µM | [20] > 100 µM
